In patent US8822517B2, “Arylosulfonamides for the treatment of CNS diseases” (Adamed SP. Z O.O., priority 2010, dated 2014):

Tests used:
[1] = target: T1, serotonine transporter (SERT) receptor (Homo sapiens, UniProt P31645); experiment: Binding assay SERT (h), [3H]imipramine, CHO cells; conditions: read-out: SERT [%]
T1 construct: expressed in transfected cells; host or cells: CHO cells
In short: (§1)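 Radioligand displacement at 1×10^−6 M compound, with detection by scintillation counting. Nonspecific signal is measured using an excess of non-radioactive ligand.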

[2] = tested on: adrenergic α1 receptor; experiment: Binding assay α1 (non-selective), [3H]prazosin, rat cerebral cortex; conditions: percent inhibition of control specific binding; compounds tested at 1×10^−6 M
In short: as §1

[3] = target: dopaminergic D3 receptor (Homo sapiens, UniProt P35462); experiment: Binding assay D3 (h), [3H]methyl-spiperone, CHO cells; set-up: expressed in transfected cells; host or cells: CHO cells; conditions: read-out: D3 [%]
Chain of dopaminergic D3 receptor (P35462 whole entry): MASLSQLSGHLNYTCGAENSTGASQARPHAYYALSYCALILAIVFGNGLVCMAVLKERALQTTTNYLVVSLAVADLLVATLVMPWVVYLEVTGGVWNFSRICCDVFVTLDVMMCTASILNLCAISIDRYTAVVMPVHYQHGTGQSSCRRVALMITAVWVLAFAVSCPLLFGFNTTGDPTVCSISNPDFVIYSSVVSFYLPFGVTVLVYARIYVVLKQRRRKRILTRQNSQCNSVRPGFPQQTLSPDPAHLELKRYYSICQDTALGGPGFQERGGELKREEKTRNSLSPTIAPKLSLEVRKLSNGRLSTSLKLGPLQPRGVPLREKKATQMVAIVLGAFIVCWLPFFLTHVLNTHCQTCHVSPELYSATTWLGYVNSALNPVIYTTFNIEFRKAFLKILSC
In short: as §1

[4] = target: serotoninergic 5-HT6 receptor (Homo sapiens, UniProt P50406); experiment: Binding assay 5-HT6 (h), [3H]LSD, CHO cells; set-up: expressed in transfected cells; host or cells: CHO cells; conditions: read-out: 5-HT6
Chain of serotoninergic 5-HT6 receptor (P50406 whole entry): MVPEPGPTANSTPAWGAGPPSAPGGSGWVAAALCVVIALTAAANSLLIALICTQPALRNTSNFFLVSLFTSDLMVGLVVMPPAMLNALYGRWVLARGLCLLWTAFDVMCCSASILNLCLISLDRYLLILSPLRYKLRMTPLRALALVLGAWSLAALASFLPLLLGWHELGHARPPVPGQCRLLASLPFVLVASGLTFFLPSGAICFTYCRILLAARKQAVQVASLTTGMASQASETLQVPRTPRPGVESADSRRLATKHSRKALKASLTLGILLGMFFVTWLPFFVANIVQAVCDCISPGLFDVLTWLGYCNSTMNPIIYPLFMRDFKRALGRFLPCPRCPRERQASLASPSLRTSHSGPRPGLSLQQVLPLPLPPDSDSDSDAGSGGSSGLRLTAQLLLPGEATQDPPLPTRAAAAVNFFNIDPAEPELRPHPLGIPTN
In short: as §1

[5] = target: serotoninergic 5-HT7 receptor (Homo sapiens, UniProt P34969); experiment: Binding assay 5-HT7 (h), [3H]LSD, CHO cells; set-up: expressed in transfected cells; host or cells: CHO cells; conditions: read-out: 5-HT7
Chain of serotoninergic 5-HT7 receptor (P34969 whole entry): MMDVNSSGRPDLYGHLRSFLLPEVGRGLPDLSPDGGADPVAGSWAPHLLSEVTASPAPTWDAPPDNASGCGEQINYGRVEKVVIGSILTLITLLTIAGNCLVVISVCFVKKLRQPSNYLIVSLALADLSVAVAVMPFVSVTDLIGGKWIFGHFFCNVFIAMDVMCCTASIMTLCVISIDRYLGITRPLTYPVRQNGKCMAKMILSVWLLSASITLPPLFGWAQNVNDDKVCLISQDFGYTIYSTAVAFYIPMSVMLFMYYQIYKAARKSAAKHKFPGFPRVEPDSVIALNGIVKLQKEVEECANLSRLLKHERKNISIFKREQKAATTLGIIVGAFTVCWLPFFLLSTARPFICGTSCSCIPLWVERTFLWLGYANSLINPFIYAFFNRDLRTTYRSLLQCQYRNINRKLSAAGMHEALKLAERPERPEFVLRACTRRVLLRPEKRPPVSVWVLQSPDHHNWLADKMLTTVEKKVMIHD
In short: as §1

[6] = target: dopaminergic D2 receptor (Homo sapiens, UniProt P14416); experiment: Binding assay D2S (h), [3H]methyl-spiperone, HEK-293 cells; set-up: expressed in transfected cells; host or cells: HEK-293 cells; conditions: read-out: D2 [%]
Chain of dopaminergic D2 receptor (P14416 1-414 isoform P14416-2): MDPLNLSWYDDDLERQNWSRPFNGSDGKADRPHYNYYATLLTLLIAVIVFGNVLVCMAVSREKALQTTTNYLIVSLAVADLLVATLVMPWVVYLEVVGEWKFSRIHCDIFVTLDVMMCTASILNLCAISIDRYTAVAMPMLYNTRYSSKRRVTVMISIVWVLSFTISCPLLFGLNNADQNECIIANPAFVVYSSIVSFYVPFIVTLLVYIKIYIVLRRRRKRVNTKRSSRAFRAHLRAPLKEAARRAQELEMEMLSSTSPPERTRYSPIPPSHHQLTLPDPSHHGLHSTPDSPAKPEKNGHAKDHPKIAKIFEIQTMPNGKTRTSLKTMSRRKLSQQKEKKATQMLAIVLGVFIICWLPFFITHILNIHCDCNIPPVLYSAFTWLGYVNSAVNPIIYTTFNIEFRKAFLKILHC
In short: as §1

[7] = target: T2, serotoninergic 5-HT1A receptor (Homo sapiens, UniProt P08908); experiment: Binding assay 5-HT1A (h), [3H]8-OH-DPAT, HEK-293 cells; set-up: expressed in transfected cells; host or cells: HEK-293 cells; conditions: read-out: 5-HT1A
T2 sequence (P08908 1-422): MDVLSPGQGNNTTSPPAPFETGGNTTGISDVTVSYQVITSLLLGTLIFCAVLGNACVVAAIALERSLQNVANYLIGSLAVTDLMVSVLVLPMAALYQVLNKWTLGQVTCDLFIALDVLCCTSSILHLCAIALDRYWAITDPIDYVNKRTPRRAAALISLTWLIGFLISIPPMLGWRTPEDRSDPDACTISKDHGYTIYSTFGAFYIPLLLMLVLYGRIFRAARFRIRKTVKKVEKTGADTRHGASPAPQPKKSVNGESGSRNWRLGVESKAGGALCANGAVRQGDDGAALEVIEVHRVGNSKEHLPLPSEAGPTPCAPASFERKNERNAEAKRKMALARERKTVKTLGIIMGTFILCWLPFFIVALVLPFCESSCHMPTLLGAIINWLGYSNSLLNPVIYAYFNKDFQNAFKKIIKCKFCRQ
In short: as §1

[8] = target: serotoninergic 5-HT2A receptor (Homo sapiens, UniProt P28223); experiment: Binding assay 5-HT2A (h), [3H]ketanserin, HEK-293 cells; set-up: expressed in transfected cells; host or cells: HEK-293 cells; conditions: read-out: 5-HT2A
Chain of serotoninergic 5-HT2A receptor (P28223 whole entry): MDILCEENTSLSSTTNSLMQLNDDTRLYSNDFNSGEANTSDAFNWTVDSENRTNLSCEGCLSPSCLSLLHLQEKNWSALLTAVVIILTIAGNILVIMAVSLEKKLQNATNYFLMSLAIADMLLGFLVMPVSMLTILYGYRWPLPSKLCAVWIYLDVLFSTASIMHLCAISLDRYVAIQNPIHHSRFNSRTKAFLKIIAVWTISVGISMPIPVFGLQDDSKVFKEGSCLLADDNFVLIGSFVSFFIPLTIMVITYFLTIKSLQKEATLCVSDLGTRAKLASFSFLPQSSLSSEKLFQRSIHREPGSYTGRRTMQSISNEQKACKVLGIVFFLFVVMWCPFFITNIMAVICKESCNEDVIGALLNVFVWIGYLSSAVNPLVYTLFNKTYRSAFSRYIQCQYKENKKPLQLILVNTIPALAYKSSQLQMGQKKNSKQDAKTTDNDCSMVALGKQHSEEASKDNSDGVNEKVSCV
In short: as §1

T1 sequence (P31645 whole entry): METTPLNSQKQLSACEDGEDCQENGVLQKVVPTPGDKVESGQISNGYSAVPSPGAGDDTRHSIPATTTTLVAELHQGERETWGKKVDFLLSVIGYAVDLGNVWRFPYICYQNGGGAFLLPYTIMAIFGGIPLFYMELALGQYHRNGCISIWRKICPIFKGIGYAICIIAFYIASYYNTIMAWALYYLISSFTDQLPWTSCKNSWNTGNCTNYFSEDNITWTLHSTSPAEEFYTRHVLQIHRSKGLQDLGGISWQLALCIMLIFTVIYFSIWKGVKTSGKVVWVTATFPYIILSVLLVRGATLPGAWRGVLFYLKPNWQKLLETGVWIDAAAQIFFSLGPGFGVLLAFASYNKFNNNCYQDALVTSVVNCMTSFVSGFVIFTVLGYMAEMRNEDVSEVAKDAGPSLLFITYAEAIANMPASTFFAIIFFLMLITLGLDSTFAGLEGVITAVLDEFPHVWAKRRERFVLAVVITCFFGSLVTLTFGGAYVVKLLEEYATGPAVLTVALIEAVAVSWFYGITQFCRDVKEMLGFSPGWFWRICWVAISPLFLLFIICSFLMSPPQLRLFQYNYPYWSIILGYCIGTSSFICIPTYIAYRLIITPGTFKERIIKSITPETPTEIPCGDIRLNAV

| SMILES | inhibition at 1 µM [1] | α1 [%] [2] | inhibition at 1 µM [3] | inhibition at 1 µM [4] | inhibition at 1 µM [5] | inhibition at 1 µM [6] | inhibition at 1 µM [7] | inhibition at 1 µM [8] |
| --- | --- | --- | --- | --- | --- | --- | --- | --- |
| O=S(=O)(NCCCCN1CCC(c2noc3cc(F)ccc23)CC1)c1cccc2scnc12 [Compound 318, N-[4-[4-(6-Fluoro-1,2-benzoxazol-3-yl)piperidin-1-yl]butyl]-1,3-benzothiazole-4-sulphonamide] | 45% | 98% | 95% | 76% | 92% | 67% | 96% | 89% |
| O=S(=O)(NCCCCN1CCN(c2noc3ccccc23)CC1)c1ccc2cn[nH]c2c1 [Compound 291, N-[4-[4-(1,2-Benzoxazol-3-yl)piperazin-1-yl]butyl]-1H-indazole-6-sulphonamide] | 8% | 99% | 85% | 83% | 99% | 99% | 38% | 83% |
| O=S(=O)(NCCCCN1CCN(c2nsc3ccccc23)CC1)c1ccc(F)cc1 [Compound 225, N-[4-[4-(1,2-Benzothiazol-3-yl)piperazin-1-yl]butyl]-4-fluorobenzenesulphonamide] | -4% | 94% | 76% | 74% | 92% | 77% | 87% | 84% |
| O=C1COc2c(cccc2N2CCN(CCCCNS(=O)(=O)c3ccc4ccccc4c3)CC2)N1 [Compound 427, N-[4-[4-(3-oxo-4H-1,4-benzoxazin-8-yl)piperazin-1-yl]butyl]naphthalene-2-sulphonamide] | 13% | 86% | 104% | 36% | 98% | 83% | 84% | 49% |
| O=S(=O)(NCCCCN1CCN(c2nsc3ccccc23)CC1)c1cccs1 [Compound 238, N-[4-[4-(1,2-Benzothiazol-3-yl)piperazin-1-yl]butyl]thiophene-2-sulphonamide] | 13% | 103% | 85% | 74% | 88% | 87% | 90% | 95% |
| O=S(=O)(NCCCN1CCC(c2noc3cc(F)ccc23)CC1)c1ccsc1 [Compound 340, N-[3-[4-(6-Fluoro-1,2-benzoxazol-3-yl)piperidin-1-yl]propyl]thiophene-3-sulphonamide] | 9% | 110% | 101% | 72% | 90% | 101% | 45% | 104% |
| O=S(=O)(NCCCCN1CCC(c2noc3cc(F)ccc23)CC1)c1cnc2ccccn12 [Compound 322, N-[4-[4-(6-Fluoro-1,2-benzoxazol-3-yl)piperidin-1-yl]butyl]imidazo[1,2-a]pyridine-3-sulphonamide] | 16% | 103% | 93% | 62% | 95% | 96% | 43% | 94% |
| O=S(=O)(NCCCN1CCC(c2noc3cc(F)ccc23)CC1)c1ccc2c(c1)CCO2 [Compound 350, N-[3-[4-(6-Fluoro-1,2-benzoxazol-3-yl)piperidin-1-yl]propyl]-2,3-dihydrobenzofuran-5-sulphonamide] | -5% | 102% | 95% | 96% | 87% | 102% | 57% | 95% |
| Cc1cc(S(=O)(=O)NCCCCN2CCC(c3noc4cc(F)ccc34)CC2)c(C)s1 [Compound 309, N-[4-[4-(6-Fluoro-1,2-benzoxazol-3-yl)piperidin-1-yl]butyl]-2,5-dimethyl-thiophene-3-sulphonamide] | -5% | 103% | 90% | 79% | 87% | 84% | 64% | 88% |
| O=S(=O)(NCCCCN1CCN(c2cccc3c2OCCO3)CC1)c1cccc(Br)c1 [Compound 391, 3-Bromo-N-[4-[4-(2,3-dihydro-1,4-benzodioxin-5-yl)piperazin-1-yl]butyl]benzenesulphonamide] | -28% | 90% | 85% | 19% | 92% | 76% | 97% | 68% |
| O=S(=O)(NCCCN1CCN(c2cccc3c2OCCO3)CC1)c1ccc2c(c1)CCO2 [Compound 417, N-[3-[4-(2,3-Dihydro-1,4-benzodioxin-5-yl)piperazin-1-yl]propyl]-2,3-dihydrobenzofuran-5-sulphonamide] | -11% | 73% | 67% | 24% | 62% | 68% | 100% | -48% |
| O=S(=O)(NCCCN1CCC(c2noc3cc(F)ccc23)CC1)c1cccc2scnc12 [Compound 351, N-[3-[4-(6-Fluoro-1,2-benzoxazol-3-yl)piperidin-1-yl]propyl]-1,3-benzothiazole-4-sulphonamide] | 31% | 97% | 103% | 89% | 94% | 101% | 71% | 103% |
| O=C1COc2c(cccc2N2CCN(CCCCNS(=O)(=O)c3cccc(Cl)c3)CC2)N1 [Compound 209, 3-Chloro-N-[4-[4-(3-oxo-4H-1,4-benzoxazin-8-yl)piperazin-1-yl]butyl]benzenesulphonamide] | -1% | 90% | 103% | 70% | 85% | 82% | 92% | 29% |
| O=S(=O)(NCCCCN1CCN(c2cccc3c2OCCO3)CC1)c1ccc(F)c(Cl)c1 [Compound 392, 3-Chloro-N-[4-[4-(2,3-dihydro-1,4-benzodioxin-5-yl)piperazin-1-yl]butyl]-4-fluorobenzenesulphonamide] | -11% | 99% | 93% | 7% | 91% | 57% | 100% | 64% |
| Cn1ccc2ccc(S(=O)(=O)NCCCCN3CCC(c4noc5cc(F)ccc45)CC3)cc21 [Compound 311, N-[4-[4-(6-Fluoro-1,2-benzoxazol-3-yl)piperidin-1-yl]butyl]-1-methyl-indole-6-sulphonamide] | 34% | 107% | 101% | 99% | 95% | 105% | 49% | 105% |
| O=S(=O)(NCCCCN1CCN(c2nsc3ccccc23)CC1)c1ccc(C(F)(F)F)cc1 [Compound 234, N-[4-[4-(1,2-Benzothiazol-3-yl)piperazin-1-yl]butyl]-4-(trifluoromethyl)benzenesulphonamide] | 32% | 91% | 91% | 62% | 97% | 85% | 95% | 92% |
| O=S(=O)(NCCCN1CCC(c2noc3cc(F)ccc23)CC1)c1ccc(F)c(F)c1 [Compound 327, 3,4-Difluoro-N-[3-[4-(6-fluoro-1,2-benzoxazol-3-yl)piperidin-1-yl]propyl]benzenesulphonamide] | -1% | 109% | 97% | 99% | 86% | 89% | 67% | 91% |
